How the values were obtained:
[1] = test system: RKO (RKOp27) human colon adenocarcinoma cells; assay: Alamar Blue cell viability assay, anti-proliferative/cytotoxic activity, RKO p27 uninduced; format: cell-based; conditions: RKOp27, 72 h, proliferating cells, absence of the inducer Ponasterone A, 72 hours incubation
Method in brief: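 RKOp27 colon adenocarcinoma subclones, uninduced, seeded at 4000 cells/well and treated 24 h later with semi-log compound dilutions in DMEM with 10% FCS, in quadruplicate. After 72 h at 37 °C, 5% CO2, viability read by Alamar Blue fluorescence (544/590 nm) relative to untreated cells; IC50 taken from concentration-effect curves.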

[2] = test system: RKO colon adenocarcinoma cells (RKOp27) arrested by expression of ectopic p27Kip1; assay: Alamar Blue cell viability assay, cell cycle specific mode of action, RKO p27 induced (arrested by Ponasterone A-induced p27Kip1); format: cell-based; conditions: Homo sapiens, RKOp27, 72 h, cells arrested by p27Kip1 induced with 10 μM Ponasterone A, 72 hours incubation
Method in brief: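 RKOp27 cells were seeded at 16000 per well in DMEM/10% FCS with 10 μM Ponasterone A to induce p27Kip1 arrest, then given compound dilutions 24 h later for 72 h at 37 °C. Viability was read by Alamar Blue fluorescence (544/590 nm) as % of untreated cells. Arrested cells were compared with proliferating cells grown without inducer.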

SMILES | IC50 [2] [µM] | IC50 [1] [µM]
COc1ccc(S(=O)(=O)N2CCc3c(sc(NC(=O)c4ccccc4)c3C#N)C2)cc1 [Compound 79, N-[3-Cyano-6-(4-methoxy-benzenesulfonyl)-4,5,6,7-tetrahydro-thieno[2,3-c]pyridin-2-yl]-benzamide] | > 60 | ≤ 3
COc1cccc(C(=O)Nc2sc3c(c2C#N)CCN(C(C)=O)C3)c1 [Compound 24, N-(6-Acetyl-3-cyano-4,5,6,7-tetrahydro-thieno[2,3-c]pyridin-2-yl)-3-methoxy-benzamide] | > 100 | ≤ 2
COC(=O)COC(=O)N1CCc2c(sc(NC(=O)c3ccccc3)c2C#N)C1 [Compound 93, 3-Cyano-2-[(1-phenyl-methanoyl)-amino]-4,7-dihydro-5H-thieno[2,3-c]pyridine-6-carboxylic acid methoxycarbonylmethyl ester] | > 100 | ≤ 3
N#Cc1c(NC(=O)c2ccccc2)sc2c1CCN(C(=O)CCc1cccnc1)C2 [Compound 41, N-[3-Cyano-6-(3-pyridin-3-yl-propanoyl)-4,5,6,7-tetrahydro-thieno[2,3-c]pyridin-2-yl]-benzamide] | > 60 | ≤ 3
CCOC(=O)N1CCc2c(sc(NC(=O)c3ccc([N+](=O)[O-])cc3)c2C#N)C1 [Compound 44, 3-Cyano-2-{[1-(4-nitro-phenyl)-methanoyl]-amino}-4,7-dihydro-5H-thieno[2,3-c]pyridine-6-carboxylic acid ethyl ester] | > 60 | ≤ 3

More lines, main results first:

IC50 [2] [µM] | SMILES | IC50 [1] [µM]
> 60 | N#Cc1c(NC(=O)c2ccccc2)sc2c1CCN(C(=O)OCCc1ccncc1)C2 [Compound 73, 3-Cyano-2-[(1-phenyl-methanoyl)-amino]4,7-dihydro-5H-thieno[2,3-c]pyridine-6-carboxylic acid 2-pyridin4-yl-ethyl ester] | ≤ 3
> 60 | N#Cc1c(NC(=O)c2ccccc2)sc2c1CCN(C(=O)OCc1ccncc1)C2 [Compound 66, 3-Cyano-2-[(1-phenyl-methanoyl)-amino]-4,7-dihydro-5H-thieno[2,3-c]pyridine-6-carboxylic acid pyridin-4-ylmethyl ester] | ≤ 3
